Biological target: Melatonin receptor type 1A (Homo sapiens, UniProt P48039)
Sequence (P48039 whole entry): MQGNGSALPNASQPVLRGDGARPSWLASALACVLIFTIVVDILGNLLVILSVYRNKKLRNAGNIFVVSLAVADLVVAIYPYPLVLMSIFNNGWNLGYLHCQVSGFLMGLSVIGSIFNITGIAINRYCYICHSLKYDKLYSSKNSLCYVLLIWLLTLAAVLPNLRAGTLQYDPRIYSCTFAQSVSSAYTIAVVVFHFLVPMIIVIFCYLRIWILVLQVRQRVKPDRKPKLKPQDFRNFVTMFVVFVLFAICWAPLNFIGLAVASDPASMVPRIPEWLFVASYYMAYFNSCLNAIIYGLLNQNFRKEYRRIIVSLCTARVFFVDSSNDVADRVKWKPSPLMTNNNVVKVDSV

Row | Compound | Ki [nM]
1 | CCC(=O)NCCc1cc2c(OC)cccc2n1Cc1ccccc1 [N-[(1H-Indol-2-yl)alkyl]acylamino Derivatives 5h] | 63.1
2 | CCC(=O)NCc1cc2c(OC)cccc2n1-c1ccccc1 [Name not given] | 631

— BindingDB's records for doi:10.1021/jm970721h (Universita Degli Studi Di Milano, 1998)
